Test results published in ChEMBL document CHEMBL1148751, “Optimization of the indenone ring of indenoisoquinoline topoisomerase I inhibitors” (2007).

Tests used:
Assay type in all cases: functional
HOP-62 = test: Cytotoxicity against human HOP62 cells
UACC-62 = test: Cytotoxicity against human UACC62 cells
HCT-116 = test: Cytotoxicity against human HCT116 cells
SF-539 = test: Cytotoxicity against human SF539 cells
OVCAR-3 = test: Cytotoxicity against human OVCAR-3 cells
DU-145 = test: Cytotoxicity against human DU145 cells
MDA-MB-435 = test: Cytotoxicity against human MDA-MB-435 cells
SN12C = test: Cytotoxicity against human SN12C cells

SMILES	GI50 (HOP-62)	GI50 (UACC-62)	GI50 (HCT-116)	GI50 (SF-539)	GI50 (OVCAR-3)	GI50 (DU-145)	GI50 (MDA-MB-435)	GI50 (SN12C)
O=C1c2ccccc2-c2c1c1ccc([N+](=O)[O-])cc1c(=O)n2CCCCl	43.6 µM							
[N-]=[N+]=NCCCn1c2c(c3ccc([N+](=O)[O-])cc3c1=O)C(=O)c1ccccc1-2		29.5 µM						
COc1ccc2c(c1)C(=O)c1c-2n(CCCN=[N+]=[N-])c(=O)c2cc([N+](=O)[O-])ccc12	< 0.001 µM		< 0.001 µM	< 0.001 µM	0.155 µM	< 0.001 µM	0.251 µM	
COc1cc2c3c(n(CCCN=[N+]=[N-])c(=O)c2cc1OC)-c1ccc(N)cc1C3=O	0.051 µM	0.026 µM	0.047 µM	0.05 µM	0.214 µM	0.059 µM	0.214 µM	0.148 µM
COc1cc2c3c(n(CCCN=[N+]=[N-])c(=O)c2cc1OC)-c1ccc(N(C)C)cc1C3=O	> 100 µM	> 100 µM		> 100 µM	> 100 µM	> 100 µM	> 100 µM	> 100 µM
CCc1ccc2c(c1)C(=O)c1c-2n(CCCN=[N+]=[N-])c(=O)c2cc(OC)c(OC)cc12	56.2 µM	91.2 µM		57.5 µM	> 100 µM	> 100 µM	> 100 µM	> 100 µM
COc1cc2c3c(n(CCCN=[N+]=[N-])c(=O)c2cc1OC)-c1ccccc1C3=O	3.55 µM	2.63 µM	1.82 µM	4.68 µM	4.57 µM	28.2 µM	9.77 µM	13.8 µM
COc1cc2c3c(n(CCCN=[N+]=[N-])c(=O)c2cc1OC)-c1ccc(F)cc1C3=O	4.17 µM	5.25 µM	4.17 µM	3.24 µM	6.17 µM	4.17 µM	38 µM	8.32 µM
COc1cc2c3c(n(CCCN=[N+]=[N-])c(=O)c2cc1OC)-c1ccc(C#N)cc1C3=O	14.1 µM	12.3 µM	24 µM	17.4 µM	17 µM	33.9 µM	> 100 µM	15.5 µM
COc1cc2c3c(n(CCCN=[N+]=[N-])c(=O)c2cc1OC)-c1ccc([N+](=O)[O-])cc1C3=O	89.1 µM	69.2 µM	> 100 µM	38.9 µM	> 100 µM	34.7 µM	> 100 µM	> 100 µM
COc1cc2c3c(n(CCCN)c(=O)c2cc1OC)-c1ccc(N)cc1C3=O		1.38 µM	0.263 µM	0.316 µM	1.82 µM	2.4 µM	4.17 µM	2.57 µM
COc1cc2c3c(n(CCCN)c(=O)c2cc1OC)-c1ccc(N(C)C)cc1C3=O	17 µM	21.9 µM	3.63 µM	1.9 µM	17.8 µM	2.4 µM	17.8 µM	17 µM
COC(=O)c1ccc2c(c1)C(=O)c1c-2n(CCCCl)c(=O)c2cc(OC)c(OC)cc12	> 100 µM	> 100 µM	> 100 µM		> 100 µM	> 100 µM	> 100 µM	> 100 µM
Cc1ccc2c(c1)C(=O)c1c-2n(CCCN)c(=O)c2cc([N+](=O)[O-])ccc12	0.191 µM		0.229 µM	0.603 µM	0.324 µM	0.115 µM	0.316 µM	0.229 µM
NCCCn1c2c(c3ccc([N+](=O)[O-])cc3c1=O)C(=O)c1ccccc1-2			< 0.005 µM			0.014 µM		0.009 µM
NCCCn1c2c(c3ccc([N+](=O)[O-])cc3c1=O)C(=O)c1cc(Cl)ccc1-2	< 0.01 µM	< 0.01 µM	< 0.01 µM	< 0.01 µM		< 0.01 µM		< 0.01 µM
O=C1c2cc(F)ccc2-c2c1c1ccc([N+](=O)[O-])cc1c(=O)n2CCCBr	2.29 µM	2.29 µM	7.24 µM		46.8 µM	3.39 µM	37.2 µM	27.5 µM
O=C1c2cc(Br)ccc2-c2c1c1ccc([N+](=O)[O-])cc1c(=O)n2CCCCl	3.63 µM		3.72 µM	0.661 µM	0.575 µM	0.214 µM	0.282 µM	0.019 µM
COc1ccc2c(c1)C(=O)c1c-2n(CCCN)c(=O)c2cc(OC)c(OC)cc12	< 0.01 µM	0.427 µM	0.054 µM	0.115 µM	0.389 µM	< 0.01 µM	1.7 µM	0.141 µM
CCc1ccc2c(c1)C(=O)c1c-2n(CCCN)c(=O)c2cc(OC)c(OC)cc12	1.82 µM	1.82 µM		1.62 µM	1.51 µM	1.62 µM	2 µM	1.74 µM
COc1cc2c3c(n(CCCN)c(=O)c2cc1OC)-c1ccc(F)cc1C3=O	0.603 µM	3.39 µM	1.38 µM	1.12 µM	6.31 µM	0.575 µM	6.03 µM	4.36 µM
COc1cc2c3c(n(CCCN)c(=O)c2cc1OC)-c1ccc(C#N)cc1C3=O	3.98 µM	17 µM	15.9 µM		19.1 µM	12.3 µM	18.6 µM	16.6 µM
COc1cc2c3c(n(CCCN)c(=O)c2cc1OC)-c1ccc([N+](=O)[O-])cc1C3=O	0.617 µM	11.5 µM	1.32 µM	3.72 µM	16.6 µM	2.09 µM	15.8 µM	11.7 µM
COc1ccc2c(c1)C(=O)c1c-2n(CCCN=[N+]=[N-])c(=O)c2cc(OC)c(OC)cc12	11.5 µM	20.9 µM	27.5 µM	56.2 µM	49 µM	26.3 µM	> 100 µM	64.6 µM
COc1cc2c3c(n(CCCN)c(=O)c2cc1OC)-c1ccccc1C3=O	0.151 µM	2.88 µM	< 0.01 µM	2.82 µM	0.085 µM	2.63 µM	0.631 µM	0.794 µM
COC(=O)c1ccc2c(c1)C(=O)c1c-2n(CCCN)c(=O)c2cc(OC)c(OC)cc12	3.72 µM	17.4 µM	16.6 µM	15.8 µM	16.6 µM	17.8 µM	18.2 µM	15.1 µM
COC(=O)c1ccc2c(c1)C(=O)c1c-2n(CCCN=[N+]=[N-])c(=O)c2cc(OC)c(OC)cc12	> 100 µM	> 100 µM	> 100 µM	> 100 µM	> 100 µM	> 100 µM	> 100 µM	> 100 µM
COc1ccc2c(c1)C(=O)c1c-2n(CCCN)c(=O)c2cc([N+](=O)[O-])ccc12	< 0.01 µM	< 0.01 µM	< 0.01 µM	< 0.01 µM				< 0.01 µM
COc1cc2c3c(n(C)c(=O)c2cc1OC)-c1cc2c(cc1C3=O)OCO2	1.3 µM	4.2 µM	35 µM			37 µM	96 µM	68 µM
